Measurements reported in patent US20220000117A1, “METHOD FOR CONTROLLING DISEASES IN SMALL GRAIN CEREALS, SEED OF SMALL GRAIN CEREALS, AND METHOD FOR SUPPRESSING LODGING DAMAGE IN SMALL GRAIN CEREALS” (KUMIAI CHEMICAL INDUSTRY CO., LTD., priority 2019, published 2022).

Columns and labels:
[1] = test system: wheat (variety: Norin No. 61); experiment: Test Example 3: emergence rate of wheat seed; format: in vivo
Experimental: (§1) Seed having a mass of 1 kg of wheat (variety: Norin No. 61) was mixed into 100 ml of suspension water containing 5 g or 0.5 g of dichlobentiazox or isotianil and air-dried, and then, 12 seeds were sown in a plastic cup having a diameter of 6 cm containing river sand and managed in a greenhouse. The number of emerged seeds was investigated nine days after seeding, and an emergence rate was calculated (Examples 6 to 9). In Comparative Examples 6 to 9, 20 ml of suspension water of an active ingredient, which had been adjusted to have a concentration shown in Table 4, was sprayed in a frame of 45 cm×45 cm in which a pot of wheat seedlings was placed (corresponding to 1000 L/ha) 14 days after seeding. On day 14 after seeding, conidiospores of powdery mildew were sifted over leaves of wheat seedlings and inoculated onto the leaves (after the sprayed liquid was dried in the case of Comparative Examples), a lesion area ratio of powdery mildew in a first leaf was investigated 19 days after seeding according to the criteria in Table 1, and the degree of disease occurrence was calculated by the above calculation formula (1).

[2] = test system: powdery mildew; experiment: Test Example 2: control test of wheat powdery mildew, pot in greenhouse, inoculated, wheat variety Norin No. 61; format: in vivo, Blumeria graminis; conditions: for Degree of Disease Occurrence: inoculated day 49, first leaf, 59 days after seeding
Experimental: (§2) Degree of Disease Occurrence=Σ(Index×Number of Leaves of Index)/(4×Number of Investigated Leaves)×100 (1)
(§3) Seed having a mass of 1 kg of wheat (variety: Norin No. 61) was mixed into 100 ml of suspension water containing 5 g or 0.5 g of dichlobentiazox or isotianil (commercial Routine flowable was used, “Routine” is a registered trademark) and air-dried, and then, 15 seeds were sown in a plastic pot of 9 cm×9 cm containing horticultural soil and managed in a greenhouse. The number of emerged seeds was investigated 10 days after seeding, and an emergence rate was calculated (Examples 2 to 5). On day 49 after seeding, conidiospores of powdery mildew were sifted over leaves of wheat seedlings and inoculated onto the leaves, a lesion area ratio of powdery mildew in a first leaf was investigated 59 days after seeding according to the criteria in Table 1, and the degree of disease occurrence was calculated by the above calculation formula (1).

[3] = test system: septoria leaf blotch; experiment: Test Example 7: control test of septoria leaf blotch of wheat, field, wheat variety TRAPEZ; format: in vivo, Septoria tritici; conditions: for Degree of Disease Occurrence: flag leaves, 219 days after seeding
Experimental: as §2
Seed of wheat (variety: TRAPEZ) was used. On seed having a mass of 1 kg, 20 ml of suspension water containing 0.5 g or 5 g of dichlobentiazox or isotianil was sprayed. In Examples 16, 17, and 18, the seed treated with the chemical was stripe-sown with a ratio of 100 kg/ha. In contrast, in Comparative Example 17, seed which had not treated with dichlobentiazox or isotianil was sown in a field in the same manner, and a spray solution corresponding to that obtained by suspending 750 g of chlomthalonil (commercial FUNGISTOP was used, “FUNGISTOP” is a registered trademark) in 200 liters of water per 1 ha was sprayed on foliage of wheat 154 days and 184 days after seeding. The severity of disease occurrence of septoria leaf blotch in flag leaves of 25 stems was investigated 219 days after seeding according to the criteria in Table 1, and the degree of disease occurrence was calculated by the above calculation formula (1).

[4] = test system: powdery mildew; experiment: Test Example 3: control test of wheat powdery mildew, cup in greenhouse, inoculated; format: in vivo, Blumeria graminis; parameters: key to Degree of Disease Occurrence: Σ(index×no. leaves of index)/(4×no. investigated leaves)×100; conditions: for Degree of Disease Occurrence: 19 days after seeding
Experimental: as §2, §1

[5] = test system: powdery mildew; experiment: Test Example 5: control test of wheat powdery mildew, field, wheat variety Haruyutaka; format: in vivo, Blumeria graminis
Experimental: as §2
Seed of wheat (variety: Haruyutaka) sterilized in advance with commercial Benlate T wettable powder 20 (“Benlate” is a registered trademark) was used. In Examples 12, 13, and 14, seed having a mass of 1 kg was mixed into 50 ml of suspension water containing 2.5 g or 1.25 g of dichlobentiazox or 50 ml of suspension water containing 2.5 g of isotianil, air-dried, and then, stripe-sown in a field with a furrow width of 30 cm and a ratio of 100 kg/ha (300 seeds/m^2). Moreover, in Comparative Example 14, seed having a mass of 1 kg was mixed into 50 ml of suspension water containing 2.5 g of tiadinil (commercial V-GET flowable was used, “V-GET” is a registered trademark), air-dried, and then, stripe-sown in a field with a furrow width of 30 cm and a ratio of 100 kg/ha (300 seeds/m^2). The presence or absence of disease occurrence and a lesion area ratio of powdery mildew in leaves just below hag leaves (next leaves) of 30 stems were investigated 85 days after seeding by according to the criteria in Table 1, and a disease leaf rate and the degree of disease occurrence were calculated by the above calculation formula(1).

[6] = test system: wheat (variety: Norin No. 61); experiment: Test Example 2: emergence rate of treated wheat seed; format: in vivo; conditions: 10 days after seeding
Experimental: as §3

[7] = Seed Treatment 0.5 g/Seed 1 kg (50 g/ha)
[8] = Seed Treatment 5 g/Seed 1 kg (500 g/ha)
[9] = Seed Treatment 2.5 g/Seed 1 kg (250 g/ha), leaves just below flag leaves, 85 days after seeding

SMILES | Emergence Rate (%) ([1]; Foliage Treatment group, spray 50 ppm (50 g/ha) 14 days after seeding, emergence counted nine days after seeding) | Emergence Rate (%) ([1]; Foliage Treatment group, spray 500 ppm (500 g/ha) 14 days after seeding, emergence counted nine days after seeding) | Emergence Rate (%) ([1]; Seed Treatment 0.5 g/Seed 1 kg (50 g/ha), nine days after seeding) | Emergence Rate (%) ([1]; Seed Treatment 5 g/Seed 1 kg (500 g/ha), nine days after seeding) | Degree of Disease Occurrence [2, 7] | Degree of Disease Occurrence [2, 8] | disease occurrence under artificial inoculation of powdery mildew ([2]; seed treatment) | Degree of Disease Occurrence [3, 7] | disease occurrence of septoria leaf blotch, seed treatment compared with foliage spraying of chlorothalonil ([3]; seed treatment) | Degree of Disease Occurrence ([4]; Foliage Treatment, spray 50 ppm suspension water (50 g/ha) day 14, first leaf) | Degree of Disease Occurrence ([4]; Foliage Treatment, spray 500 ppm suspension water (500 g/ha) day 14, first leaf) | Degree of Disease Occurrence ([4]; Seed Treatment 0.5 g/Seed 1 kg (50 g/ha), inoculated day 14, first leaf) | Degree of Disease Occurrence ([4]; Seed Treatment 5 g/Seed 1 kg (500 g/ha), inoculated day 14, first leaf) | disease occurrence of powdery mildew, seed treatment compared with spraying on foliage during a growing period ([4]; seed treatment) | Degree of Disease Occurrence [5, 9] | Disease Leaf Rate (%) [5, 9] | disease occurrence of powdery mildew, seed treatment compared with seed treatment with tiadinil ([5]; seed treatment) | Emergence Rate (%) [6, 7] | Emergence Rate (%) [6, 8] | Degree of Disease Occurrence ([3]; Foliage Treatment, spray 750 g/ha two times (154 and 184 days after seeding))
N#Cc1ccccc1NC(=O)c1snc(Cl)c1Cl [Compound (10), Isotianil] | 97% | 100% | 100% | 83.3% | 7.6 | 7.1 | the disease occurrence was suppressed | 2.1 | more suppressed | 47.2 | 27.8 | 23.5 | 4.4 | suppressed lower | 1.0 | 4.4% | suppresses the disease occurrence of powdery mildew lower | 96% | 100% | –
N#Cc1c(Cl)c(Cl)c(Cl)c(C#N)c1Cl [Chlorothalonil, chlorothalonil, reference compound] | – | – | – | – | – | – | – | – | – | – | – | – | – | – | – | – | – | – | – | 3.1
